We go through 3 compounds from patent US11951087B2, “Eye wash compositions and methods” (priority 2021, dated 2024).

“And” between values parts separate entries of the source, which are not always exact repeats. Identical values can stand only once. “Also recorded” adds a separate entry of the source. Like-named read-outs stand apart in the source and are kept apart here.

Series [1] concerns Pseudomonas aeruginosa. Format: cell-based. As to conditions: disc diffusion. (A growth-free zone around the sample is the usual read-out of agar diffusion tests.)
For series [2], the system named is P. acnes. It is filed as cell-based. As to conditions: disc diffusion.
Series [3] relates to P. aeruginosa (ACTA 9027). Format: in vivo. As to conditions: day five; for bacterial burden: topical 50, 100, 200 mM in water, none statistically significant; for most effective dose: topical, aqueous.
Series [4] has as its system P. aeruginosa (ACTA 27853). Format: in vivo. To be noted: for kill of Pseudomonas aeruginosa: both reagents and dose; for dose with most significant decrease of bacteria: day two and four; for bactericidal on stripped skin wound: 48 to 96 hours.
The subject of series [5] is EGF. The series is described as follows: Local growth hormone levels in normal mouse skin (Example 4). Format: in vivo, mice. As to conditions: 100 μM topical, normal rodent skin. As for the experimental part:
(§1) Mice were shaved but unstrapped and uninfected (normal rodent skin). The test reagents were applied topically in an aqueous solution on the unstripped site at two hours and daily on day 1, 2 and 3. Testing reagents consisted of […] and PCA formulated at one dose, 100 μM in an aqueous solution.

Series [6] has as its system IGF-1. The series is described as above. Format: in vivo, mice. To be noted: 100 μM topical, normal rodent skin. On the procedure: as §1
Series [7] concerns TGF-β. Described as above. Format: in vivo, mice. As to conditions: 100 μM topical, normal rodent skin. On the procedure:
as §1

Series [8] relates to skin stripped wounds infected with Pseudomonas aeruginosa (ATCC 27853). Description: Histological assessment of tape-stripped, infected mouse skin wound (Example 6). As to conditions: for tissue repair as evidenced by histology: two different doses.
Series [9] has as its system Candida albicans. It is filed as cell-based. To be noted: disc diffusion. An excerpt: This example describes the method for testing the antimicrobial susceptibility of anthocyanins, anthocyanidins, or metabolites and compounds thereof. The Kirby-Bauer method of disc diffusion was used for testing, following a standard set of procedures recommended by the NCCLS. In this methodology, a set of discs saturated with either testing compounds or a control was placed on inoculated agar plates. The plates were inoculated with organisms including C. difficile, P. acnes, C. prefringens, L. casei, C. albicans, E. coli, ATTC 8739 and ATCC 43895, S. aureus, S. mutans, S. pyogenes, P. aeruginosa and K. pneumonia. The control sample was amoxicillin, an antimicrobial with very effective broad-spectrum antibiotic properties. Samples included delphinidin, pelargonidin, cyanidin CI, 28% cyanindin-3-glucoside (C3G), protocatechuic acid (PCA) and 2,4,6 Trihydroxybenzaldehyde (2,4,6 THBA).
After 18, 24, or 48 hours of incubation, depending upon the microorganism, each plate was examined. The diameters of the zones of complete inhibition were measured, including the diameter of the disc. Zones were measured to the nearest millimeter, using sliding calipers. The size of the zones of inhibition was interpreted by referring to NCCLS standard. […]

Series [10] deals with IGF-1. Description: Growth hormone levels in stripped mouse skin by ELISA (Example 5). It is filed as in vivo. To be noted: 25 mM; stripped and infected mice skin; 48 hours. As for the experimental part: (§2) Four different conditions were used: mice had back skin tape stripped and the stripped site (wound) was infected with P. aeruginosa; mice had back skin stripped and were not infected, mice had taped stripped, infected and treated with PCA, mice were tape stripped, uninfected, and treated with PCA. When used, the PCA test reagent was applied topically in an aqueous solution on the stripped site at two hours and 24 hours.
(§3) The testing reagents consisted of and PCA formulated at one dose, 25 mM, in an aqueous solution. Levels of IGF-1, TGF-β, and EGF levels in the skin tissue at 48 hours were measured by ELISA. There were two control groups: the stripped skin and the stripped skin and infected.
For orientation: An ELISA detects its analyte on a solid surface through an enzyme-linked reagent.

Series [11] deals with EGF. Described as above. It is filed as in vivo, mice. To be noted: 25 mM, infected and treated wound, 48 hours. On the procedure: as §2, §3
The nature of series [12]: Solubility and hydrophilic-lipophile balance. It is filed as physicochemical.
Series [13] concerns eye tissues. The series is described as follows: Irritation of eye tissues.
For series [14] the following is noted: upon ingestion; cited from earlier work.
[15] abbreviates: 48 and 96 hours, topical, aqueous.

As to `CC1(C)S[C@@H]2[C@H](NC(=O)[C@H](N)c3ccc(O)cc3)C(=O)N2[C@H]1C(=O)O` [Amoxicillin, amoxicillin, reference compound], in series [1], the “effect on Pseudomonas aeruginosa” value is reported as “no effect”.

Take `OC[C@H]1O[C@@H](Oc2cc3c(O)cc(O)cc3[o+]c2-c2ccc(O)c(O)c2)[C@H](O)[C@@H](O)[C@@H]1O` [C3G, Cyanidin 3-glucoside]: in [2], the “bactericidal against P. acnes” value is “bactericidal” and the “susceptibility of P. acnes” value is “susceptible”. Further, in [3], the bacterial burden result was “decreased the bacterial burden” and the most effective dose worked out at 100 mM. Besides, the bacterial burden result in series [4] (100 mM, 48 and 96 hours) is on record as “significantly reduced”. Also, the bacterial burden entry in series [4] (200 mM, 48 and 96 hours) is on record as “significantly reduced”. Besides, the bacterial burden result in series [4] (setting [15]) was “decreased the bacterial burden”. Besides, the “kill of Pseudomonas aeruginosa” value in series [4] (48 hours) is on record as 10,000 fold. The “dose with most significant decrease of bacteria” value in [4] is 100 mM and 200 mM. The “bactericidal on stripped skin wound” value in series [4] (topical) is on record as “bactericidal”. Also, the “local level of EGF” value in series [5] was “decrease”. Further, the “local level of IGF-1” value in series [6] is “decrease”. The “local level of TGF-β” value in [7] is given as “decrease”. Moreover, in series [8] (100 mM, 48 hours), the dermal layer thickness entry is given as “thicker”; the hair follicles entry is “single and double cellular lining”; the inflammation entry is “inflammation in the dermis and muscular layer and below”; the surface cellularity result is “multiple cellular covering”. In addition, the vascularity entry in series [8] (100 mM, 48 hours) is reported as “prominent”. For the same compound, in series [8] (200 mM, 48 hours), the dermal layer thickness entry is listed as “thickened”; the hair follicles entry was “single and double cellular lining”; the inflammation result is “inflammation in the dermis and muscular layer”; the surface cellularity result was “multiple cells thick”. In addition, in [8] (200 mM, 48 hours), the vascularity result was “increased”. Also, the “tissue repair as evidenced by histology” value in [8] is given as “stimulated tissue repair”.

With `O=C(O)c1ccc(O)c(O)c1` [PCA, protocatechuic acid], in series [2], the “bactericidal against P. acnes” value is “bactericidal” and the “susceptibility of P. acnes” value is recorded as “susceptible”. Also, in series [1], the “effect on Pseudomonas aeruginosa” value is reported as “some effectiveness”. In addition, the “susceptibility of Candida albicans” value in series [9] is “susceptible”. Further, in [3], the bacterial burden result was “decreased the bacterial burden” and the most effective dose is on record as 50 mM. Moreover, the “statistical significance of bacterial burden reduction” value in [4] (25 mM, 48 hours) is given as “statistically significant”. For the same compound, the bacterial burden entry in [4] (25 mM, both time periods (48 and 96 hours)) was “reduced the bacterial burden”. Further, the bacterial burden entry in series [4] (setting [15]) is “decreased the bacterial burden”. In addition, the “kill of Pseudomonas aeruginosa” value in [4] (48 hours) is recorded as 10,000 fold. Further, in [4], the “dose with most significant decrease of bacteria” value is on record as 25 mM. For the same compound, the “bactericidal on stripped skin wound” value in series [4] (topical) is listed as “bactericidal”. Also, in series [10], the IGF-1 production result was “optimizes the IGF-1 production”. Further, in series [11], the EGF response level entry is reported as “lowest”. The “solubility in a lens care solution” value in [12] is “soluble”. For the same compound, in [13], the “irritation of eye tissues” value was “non-irritating”. Further, in [14], the “duration in the body” value is 8 h; the route of elimination entry is “via the urine and feces”; the “time of peak amount” value is 2 h. In [8] (25 mM, 48 hours), the “collagen between epidermis and dermis” value is on record as “collagen proliferation; also recorded: collagen layer formation”; the dermal layer thickness entry is listed as “thickened”; the hair follicles result is “prominent with multiple cellular lining”; the inflammation result is “abundant inflammation”. Further, in series [8] (25 mM, 48 hours), the surface cellularity result is “abundant and multiple cell layers”; the vascularity result was “moderate vascularity”. Further, in series [8] (50 mM, 48 hours), the dermal layer thickness result was “thicker”; the hair follicles entry was “double layer of cells”; the inflammation entry was “increased in the dermis and below the muscle layer”; the surface cellularity entry is recorded as “covered with multiple layers of cells”. Also, the vascularity result in series [8] (50 mM, 48 hours) is reported as “increased vascularity”. In [8], the “tissue repair as evidenced by histology” value is “stimulated tissue repair”.
